Here are results for seven compounds from patent US20240067662A1, “KRAS INHIBITORS” (Bristol-Myers Squibb Company, priority 2022, published 2024).

Structures are written as SMILES.

Sequence of GMPPNP-loaded KRAS G12C (P01116 1-188 isoform P01116-2 G12C): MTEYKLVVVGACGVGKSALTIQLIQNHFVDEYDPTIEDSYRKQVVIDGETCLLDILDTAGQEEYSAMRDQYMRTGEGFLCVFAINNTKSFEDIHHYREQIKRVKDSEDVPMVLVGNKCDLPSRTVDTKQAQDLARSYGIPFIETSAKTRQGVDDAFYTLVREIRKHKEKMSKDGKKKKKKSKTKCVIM

This assay deals with GMPPNP-loaded KRAS G12C (Homo sapiens, UniProt P01116, G12C). The assay is described as follows: KRAS G12C RAF Disruption Assay (HTRF). Type of assay: biochemical. The following applies: recombinant GMPPNP-loaded KRAS G12C (5 nM), 20 min with compound; GST-RAF1 RBD (9 nM); HTRF signal; read-out: KRASG12C RAF Disruption Assay (IC50). Put shortly:
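GMPPNP-loaded KRAS G12C (5 nM) was preincubated with compound for 20 min at room temperature in Tris pH 7.5 buffer with NaCl, MgCl2, DTT and BSA. GST-RAF1 RBD (9 nM) was added for 20 min, then SA-Tb (0.25 nM) for 3 h. IC50 was fitted from the HTRF 520/495 ratio.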
On the technique in general: Time-resolved FRET reads energy transfer from a long-lived donor to a nearby acceptor.
For the compound `C#Cc1cccc2cccc(-c3ncc4c(N(C)[C@@H]5CCN(C(=O)/C(F)=C/c6ccccn6)C5)nc(OC[C@@]56CCCN5C[C@H](F)C6)nc4c3F)c12` [Compound 115, (Z)-1-((R)-3-((7-(8-ethynylnaphthalen-1-yl)-8-fluoro-2-(((2R, 7aS)-2-fluorotetrahydro-1H-pyrrolizin-7a(5H)-yl)methoxy)pyrido[4,3-d]pyrimidin-4-yl)(methyl)amino)pyrrolidin-1-yl)-2-fluoro-3-(pyridin-2-yl)prop-2-en-1-one], the half-maximal inhibitory concentration (IC50) was determined as 14 nM.
In the case of `C#Cc1c(F)ccc2cc(O)cc(-c3ncc4c(N5CCN(C(=O)/C(F)=C/c6ccccn6)CC5)nc(OC[C@@]56CCCN5C[C@H](F)C6)nc4c3F)c12` [Example 27, (Z)-1-(4-(7-(8-ethynyl-7-fluoro-3-hydroxynaphthalen-1-yl)-8-fluoro-2-(((2R, 7aS)-2-fluorotetrahydro-1H-pyrrolizin-7a(5H)-yl)methoxy)pyrido[4,3-d]pyrimidin-4-yl)piperazin-1-yl)-2-fluoro-3-(pyridin-2-yl)prop-2-en-1-one], the concentration for half-maximal inhibition (IC50) came out at 3 nM.
Then `C#Cc1cccc2cccc(-c3ncc4c(N5CCCN(C(=O)/C(F)=C/c6ccccn6)CC5)nc(OC[C@@]56CCCN5C[C@H](F)C6)nc4c3F)c12` [Example 77, (Z)-1-(4-(7-(8-ethynylnaphthalen-1-yl)-8-fluoro-2-(((2R, 7aS)-2-fluorotetrahydro-1H-pyrrolizin-7a(5H)-yl)methoxy)pyrido[4,3-d]pyrimidin-4-yl)-1,4-diazepan-1-yl)-2-fluoro-3-(pyridin-2-yl)prop-2-en-1-one], with 120 nM.
Then `C#Cc1ccc(F)c2cccc(-c3ncc4c(N5CCN(C(=O)/C(F)=C/c6ccccn6)CC5)nc(OC[C@@]56CCCN5C[C@H](F)C6)nc4c3F)c12` [Compound 96, (Z)-1-(4-(7-(8-ethynyl-5-fluoronaphthalen-1-yl)-8-fluoro-2-(((2R, 7aS)-2-fluorotetrahydro-1H-pyrrolizin-7a(5H)-yl)methoxy)pyrido[4,3-d]pyrimidin-4-yl)piperazin-1-yl)-2-fluoro-3-(pyridin-2-yl)prop-2-en-1-one], with 110 nM.
Regarding `Nc1nc2c(-c3ncc4c(N5CCN(C(=O)/C(F)=C/c6nccs6)CC5)nc(OC[C@@]56CCCN5C[C@H](F)C6)nc4c3F)c(F)cc(F)c2s1` [Example 67, (Z)-1-(4-(7-(2-amino-5,7-difluorobenzo[d]thiazol-4-yl)-8-fluoro-2-(((2R, 7aS)-2-fluorotetrahydro-1H-pyrrolizin-7a(5H)-yl)methoxy)pyrido[4,3-d]pyrimidin-4-yl)piperazin-1-yl)-2-fluoro-3-(thiazol-2-yl)prop-2-en-1-one], the 50% inhibitory concentration (IC50) worked out at 41 nM.
For the compound `C#Cc1cccc2cccc(-c3nc(OC)c4c(N5CCN(C(=O)/C(F)=C/c6ccccn6)CC5)nc(OC[C@@]56CCCN5C[C@H](F)C6)nc4c3F)c12` [Compound 109, (Z)-1-(4-(7-(8-ethynylnaphthalen-1-yl)-8-fluoro-2-(((2R, 7aS)-2-fluorotetrahydro-1H-pyrrolizin-7a(5H)-yl)methoxy)-5-methoxypyrido[4,3-d]pyrimidin-4-yl)piperazin-1-yl)-2-fluoro-3-(pyridin-2-yl)prop-2-en-1-one], the IC50 is 240 nM.
In the case of `CN1CCC[C@H]1COc1nc(N2CCN(C(=O)/C(F)=C/c3ccccn3)[C@@H](CC#N)C2)c2cnc(-c3cccc4ccccc34)c(F)c2n1` [Compound 19B, 2-((S)-4-(8-fluoro-2-(((S)-1-methylpyrrolidin-2-yl)methoxy)-7-(naphthalen-1-yl)pyrido[4,3-d]pyrimidin-4-yl)-1-((Z)-2-fluoro-3-(pyridin-2-yl)acryloyl)piperazin-2-yl)acetonitrile] it was 270 nM.

In general, IC50 refers to the midpoint of a concentration-inhibition curve.
